This note sets out measurements from patent US9234000B2, “Benzylamine derivatives as inhibitors of plasma kallikrein” (KalVista Pharmaceuticals Limited, priority 2011, dated 2016).

Molecules are shown by their SMILES. ≈ marks a conversion by molar mass, not a printed value. Where two headings read alike, the source gives them in different places.

One data set concerns the target Human KLK1 (Homo sapiens (Human), UniProt P06870). In words: Determination of the IC50 for KLK1. Format: biochemical. As to conditions: Human KLK1, 37° C., substrate H-DVal-Leu-Arg-AFC. Put shortly: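 IC50 values reflect residual human KLK1 activity, read as initial rate from optical absorbance change at 410 nm. Incubations ran at 37° C with H-DVal-Leu-Arg-AFC as substrate across a compound concentration series.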

The next data set in a line: physchem. To be noted: pH 7. How it is done: Determination of the Kinetic Solubility in Phosphate Buffer
After shaking for approximately 30 seconds the reduction in light transmission of these samples, at 650 nm, was measured (Molecular Devices Spectromax UV/visible spectrophotometer). A second measurement was taken at approximately 30 seconds later.

The next data set concerns the target Human plasma kallikrein (Homo sapiens (Human), UniProt P03952). In words: Determination of the IC50 for plasma kallikrein. Format: biochemical. To be noted: 37° C., read-out: IC50 (human PKal). Put shortly:
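Human plasma kallikrein incubated at 37° C with fluorogenic substrate H-DPro-Phe-Arg-AFC and varying compound concentrations. Initial reaction rate followed by absorbance change at 410 nm to give residual activity and IC50.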

Data set [1] can be described thus: Determination of thermodynamic solubility in phosphate buffer. Format: physicochemical. To be noted: pH 7.4, aqueous buffer, thermodynamic from solid, ammonium phosphate buffer pH7.4, 290 mOsm, 37° C., nominal 1 mg/mL, read-out: Solubility in PO4 buffer. How it is done:
Determination of Thermodynamic Solubility in Phosphate Buffer
The thermodynamic solubility of compound was determined in Ammonium Phosphate Buffer (pH7.4, 290 mOsm). Compounds were made up at a nominal concentration of 1 mg/mL, vortexed then placed on a shaker for 1 h, 37° C. at approximately 950 rpm. Following incubation samples were transferred to eppendorf tubes and centrifuged at 15,000 g (r.c.f.) for 10 minutes at 37° C. The concentration of compound in the supernatant was determined by LC-MS/MS analysis using a calibration line prepared from a DMSO stock.

The mark [2] stands for this setting: fluorogenic substrate H-DPro-Phe-Arg-AFC.

Human plasma kallikrein, sequence (P03952 391-638): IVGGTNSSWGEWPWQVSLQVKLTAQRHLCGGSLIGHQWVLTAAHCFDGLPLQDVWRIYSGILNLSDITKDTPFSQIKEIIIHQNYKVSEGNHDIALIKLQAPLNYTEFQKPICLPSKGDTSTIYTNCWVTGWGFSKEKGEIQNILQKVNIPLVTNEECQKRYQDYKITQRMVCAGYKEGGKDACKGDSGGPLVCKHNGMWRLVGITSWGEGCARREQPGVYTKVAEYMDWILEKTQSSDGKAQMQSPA
Human plasma kallikrein, sequence (P03952 20-390 partner): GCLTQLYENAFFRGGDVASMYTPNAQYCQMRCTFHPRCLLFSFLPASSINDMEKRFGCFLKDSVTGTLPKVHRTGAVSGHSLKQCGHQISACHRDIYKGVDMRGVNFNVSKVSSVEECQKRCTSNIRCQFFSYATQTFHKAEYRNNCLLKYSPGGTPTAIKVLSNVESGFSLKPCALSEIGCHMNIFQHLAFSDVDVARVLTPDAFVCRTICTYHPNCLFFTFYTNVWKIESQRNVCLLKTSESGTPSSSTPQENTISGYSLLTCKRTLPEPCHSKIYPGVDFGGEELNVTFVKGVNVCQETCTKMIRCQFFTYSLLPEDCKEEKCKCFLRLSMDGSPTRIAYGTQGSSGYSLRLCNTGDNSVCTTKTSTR
Human KLK1, sequence (P06870 25-262): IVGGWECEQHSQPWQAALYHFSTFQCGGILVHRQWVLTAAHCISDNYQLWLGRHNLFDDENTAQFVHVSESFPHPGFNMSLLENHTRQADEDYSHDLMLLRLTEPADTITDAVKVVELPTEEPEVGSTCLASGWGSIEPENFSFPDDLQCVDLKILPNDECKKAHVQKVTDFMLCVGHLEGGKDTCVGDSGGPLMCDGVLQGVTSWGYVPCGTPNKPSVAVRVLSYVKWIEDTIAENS

As for `CN(CC(=O)O)[C@H](CC1CCCCC1)C(=O)N[C@@H](Cc1ccc(Cl)c(Cl)c1)C(=O)NCc1ccc(CN)c(F)c1` [Example 43, ({(R)-1-[(S)-1-(4-Aminomethyl-3-fluoro-benzylcarbamoyl)-2-(3,4-dichloro-phenyl)-ethylcarbamoyl]-2-cyclohexyl-ethyl}-methyl-amino)-acetic acid], the IC50 (in general, the concentration at which inhibition is half-maximal) is greater than 10 µM at Human KLK1 (Table 12) and 1.3 µM at Human plasma kallikrein (setting [2]). For the same compound, the solubility in PO4 buffer in “physchem” was greater than 235 µM.
For `CCOc1ccc(C[C@@H](NC(=O)C(C)C)C(=O)N(C)[C@@H](Cc2ccccc2)C(=O)NCc2ccc(CN)cc2)cc1` [Example 44, N-[(R)-1-{[(S)-1-(4-Aminomethyl-benzylcarbamoyl)-2-phenyl-ethyl]-methyl-carbamoyl}-2-(4-ethoxy-phenyl)-ethyl]-isobutyramide] the same measures were greater than 10 µM, 0.18 µM and greater than 235 µM.
For `CCCN(C)[C@H](CC1CCCCC1)C(=O)N[C@@H](Cc1ccccc1)C(=O)NCc1ccc(CN)cc1` [Example 45, (R)-N-[(S)-1-(4-Aminomethyl-benzylcarbamoyl)-2-phenyl-ethyl]-3-cyclohexyl-2-(methyl-propyl-amino)-propionamide] the same measures were greater than 10 µM, 0.79 µM and greater than 235 µM.
As for `NCc1ccc(CNC(=O)[C@H](Cc2ccccc2)NC(=O)[C@@H](CC2CCCCC2)NCCO)cc1` [Example 51, (R)-N-[(S)-1-(4-Aminomethyl-benzylcarbamoyl)-2-phenyl-ethyl]-3-cyclohexyl-2-(2-hydroxy-ethylamino)-propionamide], the IC50 is greater than 10 µM against Human KLK1 (Table 12) and 1 µM on Human plasma kallikrein (setting [2]). In addition, the solubility in PO4 buffer in the data set “physchem” was greater than 235 µM.
For `NCc1ccc(CNC(=O)[C@H](Cc2ccccc2)NC(=O)[C@H](N)C(C2CCCCC2)C2CCCCC2)cc1` [Example 52, (R)-2-Amino-N-[(S)-1-(4-aminomethyl-benzylcarbamoyl)-2-phenyl-ethyl]-3,3-dicyclohexyl-propionamide], the half-inhibitory concentration (IC50) against Human KLK1 (Table 12) is 9.5 µM; at Human plasma kallikrein (setting [2]), 0.86 µM. Moreover, the solubility in PO4 buffer in “physchem” is greater than 235 µM.
For `CCCN(CCC)[C@H](CC1CCCCC1)C(=O)N[C@@H](Cc1ccccc1)C(=O)NCc1ccc(CN)cc1` [Example 53, (R)-N-[(S)-1-(4-Aminomethyl-benzylcarbamoyl)-2-phenyl-ethyl]-3-cyclohexyl-2-dipropylamino-propionamide] the same measures were greater than 10 µM, 0.65 µM and greater than 235 µM.
For `CCOc1ccc(C[C@@H](NC(=O)CC)C(=O)N2CC[C@H](c3ccccc3)[C@H]2C(=O)NCc2ccc(CN)cc2)cc1` [Example 67, (2S,3R)-1-[(R)-3-(4-Ethoxy-phenyl)-2-propionylamino-propionyl]-3-pheny-pyrrolidine-2-carboxylic acid 4-aminomethyl-benzylamide] the same measures were greater than 10 µM, 1.6 µM and greater than 235 µM.
On to `CCOc1ccc(C[C@@H](NC(=O)c2cccnc2)C(=O)N[C@@H](Cc2ccccc2)C(=O)NCc2ccc(CN)cc2)cc1` [Example 70, N-[(R)-1-[(S)-1-(4-Aminomethyl-benzylcarbamoyl)-2-phenyl-ethylcarbamoyl]-2-(4-ethoxy-phenyl)-ethyl]-nicotinamide], for which the solubility – broadly, the concentration that dissolves in the medium under given conditions – at 1 h in data set [1] was 11.5 µg/mL (≈ 19.9 µM). For the same compound, the IC50 stood at 7.5 µM against Human KLK1 (Table 13) and 0.126 µM on Human plasma kallikrein (substrate H-DPro-Phe-Arg-AFC).
For `CCOc1ccc(C[C@@H](NC(=O)c2ccncc2)C(=O)N[C@@H](Cc2ccccc2)C(=O)NCc2ccc(CN)cc2)cc1` [Example 71, N-[(R)-1-[(S)-1-(4-Aminomethyl-benzylcarbamoyl)-2-phenyl-ethylcarbamoyl]-2-(4-ethoxy-phenyl)-ethyl]-isonicotinamide] the same measures were 22.1 µg/mL (≈ 38.1 µM), greater than 10 µM and 0.077 µM.
As for `CCOc1ccc(C[C@@H](NC(=O)c2ccsc2)C(=O)N[C@@H](Cc2ccccc2)C(=O)NCc2ccc(CN)cc2)cc1` [Example 72, Thiophene-3-carboxylic acid-[(R)-1-[(S)-1-(4-aminomethyl-benzylcarbamoyl)-2-phenyl-ethylcarbamoyl]-2-(4-ethoxy-phenyl)-ethyl]-amide], in data set [1], the solubility at 1 h is 6.9 µg/mL (≈ 11.8 µM). In addition, the IC50 against Human KLK1 (Table 13) stood at 9.1 µM; at Human plasma kallikrein (substrate H-DPro-Phe-Arg-AFC), 0.046 µM.
On to `CCOc1ccc(C[C@@H](NC(=O)c2cccs2)C(=O)N[C@@H](Cc2ccccc2)C(=O)NCc2ccc(CN)cc2)cc1` [Example 73, Thiophene-2-carboxylic acid [(R)-1-[(S)-1-(4-aminomethyl-benzylcarbamoyl)-2-phenyl-ethylcarbamoyl]-2-(4-ethoxy-phenyl)-ethyl]-amide], for which, in data set [1], the solubility at 1 h was found to be 5.1 µg/mL (≈ 8.72 µM). The IC50 at Human KLK1 (Table 13) worked out at 9.3 µM; at Human plasma kallikrein (substrate H-DPro-Phe-Arg-AFC), 0.025 µM.
For `CCOc1ccc(C[C@@H](NC(=O)C2CCCCC2)C(=O)N[C@@H](Cc2ccccc2)C(=O)NCc2ccc(CN)cc2)cc1` [Example 75, Cyclohexanecarboxylic acid [(R)-1-[(S)-1-(4-aminomethyl-benzylcarbamoyl)-2-phenyl-ethylcarbamoyl]-2-(4-ethoxy-phenyl)-ethyl]-amide] the same measures were 1.06 µg/mL (≈ 1.81 µM), greater than 10 µM and 0.27 µM.
For `CCOc1ccc(C[C@@H](NC(=O)c2ccno2)C(=O)N[C@@H](Cc2ccccc2)C(=O)NCc2ccc(CN)cc2)cc1` [Example 79, Isoxazole-5-carboxylic acid [(R)-1-[(S)-1-(4-aminomethyl-benzylcarbamoyl)-2-phenyl-ethylcarbamoyl]-2-(4-ethoxy-phenyl)-ethyl]-amide] the same measures were 2.4 µg/mL (≈ 4.21 µM), 8.6 µM and 0.038 µM.
For `CCOc1ccc(C[C@@H](NC(=O)c2ccccn2)C(=O)N[C@@H](Cc2ccccc2)C(=O)NCc2ccc(CN)cc2)cc1` [Example 81, Pyridine-2-carboxylic acid [(R)-1-[(S)-1-(4-aminomethyl-benzylcarbamoyl)-2-phenyl-ethylcarbamoyl]-2-(4-ethoxy-phenyl)-ethyl]-amide] the same measures were 1.3 µg/mL (≈ 2.24 µM), greater than 10 µM and 0.04 µM.
Consider `CCOc1ccc(C[C@@H](NS(=O)(=O)c2ccc(Cl)cc2)C(=O)N[C@@H](Cc2ccccc2)C(=O)NCc2ccc(CN)cc2)cc1` [Example 84, (R)-N-[(S)-1-(4-Aminomethyl-benzylcarbamoyl)-2-phenyl-ethyl]-2-(4-chloro-benzenesulfonylamino)-3-(4-ethoxy-phenyl)-propionamide], for which the solubility at 1 h in data set [1] is 0.5 µg/mL (≈ 0.77 µM). For the same compound, the IC50 worked out at 1.2 µM on Human KLK1 (Table 13) and 0.219 µM on Human plasma kallikrein (substrate H-DPro-Phe-Arg-AFC).
For `CCOc1ccc(C[C@@H](NC(=O)c2cccc(Cl)c2)C(=O)N[C@@H](Cc2ccccc2)C(=O)NCc2ccc(CN)cc2)cc1` [Example 88, N-[(R)-1-[(S)-1-(4-Aminomethyl-benzylcarbamoyl)-2-phenyl-ethylcarbamoyl]-2-(4-ethoxy-phenyl)-ethyl]-3-chloro-benzamide] the same measures were 0.2 µg/mL (≈ 0.326 µM), greater than 10 µM and 0.09 µM.
As to `CCOc1ccc(C[C@@H](NC(=O)c2ccc(C)cc2)C(=O)N[C@@H](Cc2ccccc2)C(=O)NCc2ccc(CN)cc2)cc1` [Example 92, N-[(R)-1-[(S)-1-(4-Aminomethyl-benzylcarbamoyl)-2-phenyl-ethylcarbamoyl]-2-(4-ethoxy-phenyl)-ethyl]-4-methyl-benzamide], the solubility at 1 h in data set [1] is 0.2 µg/mL (≈ 0.337 µM).
Same read-out and setting: the same measure for `CCOc1ccc(C[C@@H](NC(=O)c2ccc(OC)cc2)C(=O)N[C@@H](Cc2ccccc2)C(=O)NCc2ccc(CN)cc2)cc1` [Example 95, N-[(R)-1-[(S)-1-(4-Aminomethyl-benzylcarbamoyl)-2-phenyl-ethylcarbamoyl]-2-(4-ethoxy-phenyl)-ethyl]-4-methoxy-benzamide]: 2.05 µg/mL (≈ 3.37 µM); for `CCCOc1ccc(C[C@@H](NC(=O)c2ccccc2)C(=O)N[C@@H](Cc2ccccc2)C(=O)NCc2ccc(CN)cc2)cc1` [Example 131, N-[(R)-1-[(S)-1-(4-Aminomethyl-benzylcarbamoyl)-2-phenyl-ethylcarbamoyl]-2-(4-propoxy-phenyl)-ethyl]-benzamide]: 0.56 µg/mL (≈ 0.945 µM).
Still for that read-out and setting: the result for `CCOc1ccc(C[C@@H](NC(=O)c2ccccc2)C(=O)N[C@@H](Cc2c[nH]c3ccccc23)C(=O)NCc2ccc(CN)cc2)cc1` [Example 176, N-[(R)-1-[(S)-1-(4-Aminomethyl-benzylcarbamoyl)-2-(1H-indol-3-yl)-ethylcarbamoyl]-2-(4-ethoxy-phenyl)-ethyl]-benzamide] reads 2.28 µg/mL (≈ 3.69 µM).
